Laboratory results published in patent US5206234A, “Benzolactam analogs as antagonists of CCK” (priority 1991, dated 1993).

How the values were obtained:
CCK receptor (Pancreas) = molecular target: T1, CCK receptor (Pancreas) (Rattus norvegicus, UniProt P30551); assay: CCK Receptor Binding (Pancreas), inhibition of 125I-CCK-33 binding; design: species or system rat (Male Sprague-Dawley); conditions: for IC50: 125I-CCK-33, rat pancreas membranes; for Effect on the 125I-CCK receptor binding assay: added as protease inhibitors
T1 construct: The whole pancreas was dissected free of fat tissue and was homogenized; from tissue; host or cells: pancreas membranes of male Sprague-Dawley rats
T1 sequence (P30551 1-444): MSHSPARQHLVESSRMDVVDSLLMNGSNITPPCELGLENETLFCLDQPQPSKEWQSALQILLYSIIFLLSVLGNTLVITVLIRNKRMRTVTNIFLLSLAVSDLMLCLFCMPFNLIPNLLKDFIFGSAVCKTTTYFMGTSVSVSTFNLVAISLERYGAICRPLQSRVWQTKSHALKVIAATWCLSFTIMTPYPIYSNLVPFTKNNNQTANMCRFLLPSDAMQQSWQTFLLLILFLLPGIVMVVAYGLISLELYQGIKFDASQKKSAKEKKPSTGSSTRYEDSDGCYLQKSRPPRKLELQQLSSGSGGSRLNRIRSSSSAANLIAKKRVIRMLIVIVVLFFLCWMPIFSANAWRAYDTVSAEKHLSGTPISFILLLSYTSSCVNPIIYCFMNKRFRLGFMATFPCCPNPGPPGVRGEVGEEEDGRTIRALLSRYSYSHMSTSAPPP
Protocol: CCK-33 was radiolabeled with ^125 I-Bolton Hunter reagent (2000 Ci/mmole) as described by Sankara et al. (J. Biol. Chem. 254: 9349-9351, 1979). Receptor binding was performed according to Innis and Snyder (Proc. Natl. Acad. Sci. 77, 6917-6921, 1980) with the minor modification of adding the additional protease inhibitors, phenylmethane sulfonyl fluoride and o-phenanthroline. The latter two compounds have no effect on the ^125 I-CCK receptor binding assay.
Male Sprague-Dawley rats (200-350 g) were sacrificed by decapitation. The whole pancreas was dissected free of fat tissue and was homogenized in 20 volumes of ice-cold 50 mM Tris HCl (pH 7.7 at 25° C.) with a Brinkmann Polytron PT 10. The homogenates were centrifuged at 48,000 g for 10 min. Pellets were resuspended in Tris Buffer, centrifuged as above and resuspended in 200 volumes of binding assay buffer (50 mM Tris HCl, pH 7.7 at 25° C., 5 mM dithiothrietol, 0.1 mM bacitracin, 1.2 mM phenylmethane sulfonyl fluoride and 0.5 mM o-phenanthroline). […] All assays were run in duplicate or triplicate. The reaction mixtures were incubated at 37° C. for 30 minutes and centrifuged in a Beckman Microfuge (4 minutes) immediately after adding 1 ml of ice-cold incubation buffer. The supernatant was aspirated and discarded, pellets were counted with a Beckman gamma 5000. For Scatchard analysis (Ann. N.Y. Acad. Sci. 51: 660, 1949), ^125 I-CCK-33 was progressively diluted with increasing concentrations of CCK-33.
A Ki value (dissociation constant of inhibitor) of the compounds of Formula I was estimated.

[1] = molecular target: T2, CCK receptor (Brain, cerebral cortex) (Cavia porcellus, UniProt H0VZC5); assay: CCK Receptor Binding (Brain), inhibition of 125I-CCK-33 binding; design: species or system guinea pig (Male Hartley); conditions: head prints ^25 I-CCK; guinea pig cerebral cortex
T2 construct: Cerebral cortex was dissected and used as a receptor source; from tissue; host or cells: cerebral cortex membranes of male Hartley guinea pigs
T2 sequence (H0VZC5 1-426): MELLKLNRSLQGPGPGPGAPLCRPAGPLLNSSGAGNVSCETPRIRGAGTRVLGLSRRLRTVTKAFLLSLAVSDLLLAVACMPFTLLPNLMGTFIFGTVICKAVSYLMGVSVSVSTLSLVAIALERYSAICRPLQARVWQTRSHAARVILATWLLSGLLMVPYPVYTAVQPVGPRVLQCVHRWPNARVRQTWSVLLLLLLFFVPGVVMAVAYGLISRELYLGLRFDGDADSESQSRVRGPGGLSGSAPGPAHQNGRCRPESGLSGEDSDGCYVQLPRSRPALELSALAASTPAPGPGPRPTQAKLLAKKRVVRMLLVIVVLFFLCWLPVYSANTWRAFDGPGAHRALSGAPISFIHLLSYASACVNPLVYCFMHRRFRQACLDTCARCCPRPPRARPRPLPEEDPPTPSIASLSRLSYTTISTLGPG
Protocol: CCK-33 was radiolabeled and the binding was performed according to the description for the pancreas method with modifications according to Saito et al., J. Neurochem. 37:483-490, 1981.
Male Hartley guinea pigs (300-500 g) were sacrificed by decapitation and the brains were removed and placed in ice-cold 50 mM Tris HCl plus 7.58 g/l Trizma-7.4 (pH 7.4 at 25° C.). Cerebral cortex was dissected and used as a receptor source. Each gram of fresh guinea pig brain tissue was homogenized in 10 ml of Tris/Trizma buffer with a Brinkman polytron PT-10. The homogenates were centrifuged at 42,000 g for 15 minutes. Pellets were resuspended in Tris Buffer, centrifuged as above and resuspended in 200 volumes of binding assay buffer (10 mM N-2-hydroxyethyl-piperazine-N'-2-ethane sulfonic acid (HEPES), 5 mM MgCl2, 0.25 mg/ml bacitracin, 1 mM ethylene glycol-bis-(β-aminoethylether-N,N'-tetraacetic acid) (EGTA), and 0.4% bovine serum albumin (BSA)). […] All assays were run in duplicate or triplicate. The reaction mixtures were incubated at 25° C. for 2 hours and centrifuged in a Beckman Microfuge (4 minutes) immediately after adding 1 ml of ice-cold incubation buffer. The supernatant was aspirated and discarded, pellets were counted with a Beckman gamma 5000.

[2] = molecular target: T3, Gastrin receptor (Gastric Glands) (Cavia porcellus, UniProt H0VZC5); assay: Gastrin Receptor Binding in Guinea Pig Gastric Glands; design: species or system guinea pig (male Hartley); conditions: head prints ^25 I-Gastrin, read-out: Receptor binding IC50, 125I-Gastrin Gastric Glands
T3 construct: from tissue; host or cells: gastric mucosal glands of male Hartley guinea pigs
T3 sequence (H0VZC5 1-426): T2 sequence (H0VZC5 1-426)
Protocol: Guinea pig gastric mucosal glands were prepared by the procedure of Berglingh and Obrink Acta Physiol. Scand. 96: 150 (1976) with a slight modification according to Praissman et al. C. J. Receptor Res. 3: (1983). Gastric mucosa from guinea pigs (300-500 g body weight, male Hartley) were washed thoroughly and minced with fine scissors in standard buffer consisting of the following: 130 mM NaCl, 12 mM NaHCO3, 3 mM NaH2 PO4, 3 mM Na2 HPO4, 3 mM K2 HPO4, 2 mM MgSO4, 1 mM CaCl2, 5 mM glucose and 4 mM L-glutamine, 25 mM HEPES at pH 7.4. The minced tissues were washed and then incubated in a 37° C. shaker bath for 40 minutes with the buffer containing 0.1% collagenase and 0.1% BSA and bubbled with 95% O2 and 5% CO2. The tissues were passed twice through a 5 ml glass syringe to liberate the gastric glands, and then filtered through 200 mesh nylon. The filtered glands were centrifuged at 270 g for 5 minutes and washed twice by resuspension and centrifugation.
The washed guinea pig gastric glands prepared as above were resuspended in 25 ml of standard buffer containing 0.25 mg/ml of bacitracin. For binding studies, to 220 μl of gastric glands in triplicate tubes, 10 μl of buffer (for total binding) or gastrin (1 μM final concentration, for nonspecific binding) or test compound and 10 μl of ^125 I-gastrin (NEN, 2200 Ci/mmole, 25 pM final) or ^3 H-pentagastrin (NEN 22 Ci/mmole, 1 nM final) were added. The tubes were aerated with 95% O2 and 5% CO2 and capped. The reaction mixtures after incubation at 25° C. for 30 minutes were filtered under reduced pressure on glass G/F B filters (Whatman) and immediately washed further with 4×4 ml of standard buffer containing 0.1% BSA. The radioactivity on the filters was measured using a Beckman gamma 5500 for ^125 I-gastrin or liquid scintillation counting for ^3 H-pentagastrin.

anxiety (mice) = assay: Black/white exploration test (anxiolytic activity); type: in vivo, mouse (male DBA2)
Text: The black/white exploration test [Crawley et al. Pharmacology, Biochemistry and Behav. 13, 167 (1980)] is a simple animal model of anxiety. Rodents placed in a two compartment box which consists of a brightly lit, white painted side and a dimly lit, black painted side, display a marked preference for the black side of the apparatus. This behavior is caused by the aversive properties of the brightly lit, white painted section. Classical anxiolytic drugs [such as diazepam, see Crawley, supra] and novel anxiolytic drugs [such as 5HT3 antagonists, see Jones et al. Br. J. Pharm.
A. Naive male DBA2 mice (25-30) were housed on a reversed light/dark cycle and tested during the dark phase of the cycle under dim red light. The apparatus consisted of an open topped box (40 cm long×27 cm wide×27 cm high) divided into a small area (2/5) and a large area (3/5) by a partition that extended 20 cm above the walls. There was a 7.5×7.5 cm opening in the partition at floor level. The small compartment was painted black and the large compartment white. The floor of each compartment was marked into 9 cm squares. The white compartment was illuminated by a 100 W tungsten bulb 17 cm above the box and the black compartment by a similarly placed 60 W red bulb.
Animals that had been injected with drug or vehicle were placed individually into the centre of the white area and their behavior observed during a 5 minute period by remote video recording. Four behavioral parameters were recorded every minute: the number of exploratory rears in the white and black sections, the number of line crossings in the black and white sections, the number of transitions between the two sections and the time spent in the black and white sections. Animals were tested in treatment groups of 8-10 and vehicle controls were run on each test day. Data were analysed by ANOVA and Dunnetts test.

| Structure (SMILES) | IC50 (CCK receptor (Pancreas)) | IC50 [1] | other results |
| --- | --- | --- | --- |
| Cc1ccc(NC(=O)NC2CCc3ccccc3N(CC(=O)N3CCN(C)CC3)C2=O)cc1 (centres unmarked) [Example 14, 1-Methyl-4-{[2,3,4,5-tetra-hydro-3-{[[(4-methylphenyl)amino}carbonyl]amino}-2-oxo-1H-1-benzazepin-1-yl]acetyl}piperazine] | 13000 nM | 77000 nM |  |
| COc1cccc(NC(=O)NC2CCc3ccccc3N(CC(=O)OC(C)(C)C)C2=O)c1 (centres unmarked) [Example 2] | 14000 nM |  |  |
| c1cnc2c(c1)ccc1cccnc12 [o-phenanthroline, reference compound] |  |  | Effect on the 125I-CCK receptor binding assay (CCK receptor (Pancreas)): no effect |
| Cc1ccc(NC(=O)NC2CCc3ccccc3N(CC(=O)N3CCCC3)C2=O)cc1 (centres unmarked) [Example 13, 1-{[2,3,4,5-Tetrahydro-3-{[[(4-methylphenyl)amino]carbonyl]amino}-2-oxo-1H-1-benzazepin-1-yl]aceyl}pyrrolidine] | 1600 nM |  |  |
| O=C(O)CN1C(=O)C(NC(=O)Nc2cccc3ccccc23)CCc2ccccc21 (centres unmarked) [Example 9, 2,3,4,5-Tetrahydro-3-{[[(1-naphthalenyl)amino]carbonyl]amino}-2-oxo-1H-1-benzazepine-1-acetic acid] | 20000 nM |  |  |
| Cc1cccc(NC(=O)NC2CCc3ccccc3N(CC(=O)N3CCN(C)CC3)C2=O)c1 (centres unmarked) [Example 7, 1-Methyl-4-{[2,3,4,5-tetrahydro-3-{[[(3-methylphenyl)amino]carbonyl]amino}-2-oxo-1H-1-benzazepin-1-yl]aceyl}piperazine] | 970 nM | 5000 nM | IC50 [2]: 610 nM |
| COc1cccc(NC(=O)NC2CCc3ccccc3N(CC(=O)O)C2=O)c1 (centres unmarked) [Example 3] | 2100 nM | 8600 nM | IC50 [2]: 3100 nM |
| Cc1cccc(NC(=O)N[C@@H]2N=C(c3ccccc3)c3ccccc3N(C)C2=O)c1 [Compound B, (R)-N-(2,3-dihydro-1-methyl-2-oxo-5-phenyl-1H-1,4-benzodiazepin-3-yl)-N'-(3-methylphenyl)urea] |  |  | Difference in time spent in the black and white side (anxiety (mice); 0.005 ug/kg): decreased the difference in time spent in the black and white side; Preference for rearing in the black side (anxiety (mice); 0.05 ug/kg): abolished the preference for rearing in the black side; Active dose range (anxiety (mice); black/white exploration test, mice): 0.005 to 0.05 µg/kg |
| CN1CCN(C(=O)CN2C(=O)C(NC(=O)Nc3cccc4ccccc34)CCc3ccccc32)CC1 (centres unmarked) [Example 10, 1-Methyl-4-{[2,3,4,5-tetra-hydro-3-{[[(1-naphthalenyl)amino]carbonyl]amino}-2-oxo-1H-1-benzazepin-1-yl]acetyl}piperazine] | 32000 nM |  |  |
| O=S(=O)(F)Cc1ccccc1 [phenylmethane sulfonyl fluoride, reference compound] |  |  | Effect on the 125I-CCK receptor binding assay (CCK receptor (Pancreas)): no effect |

The next lines start with results.

| IC50 (CCK receptor (Pancreas)) | IC50 [1] | Structure (SMILES) | other results |
| --- | --- | --- | --- |
| 960 nM | 148 nM | CC(C)(C)OC(=O)CN1C(=O)C(NC(=O)Nc2cccc3ccccc23)CCc2ccccc21 (centres unmarked) [Example 8] | IC50 [2]: 480 nM |
| 350 nM | 180 nM | CC(C)(C)OC(=O)CN1C(=O)C(NC(=O)Nc2ccc(Cl)cc2)CCc2ccccc21 (centres unmarked) [Example 1, 1,1-Dimethylethyl 3-{[[(4-chlorophenyl)amino]carbonyl]amino}-2,3,4,5-tetrahydro-2-oxo-1H-1-benzazepine-1-acetic acid ester] | IC50 [2]: 120 nM |
| 940 nM |  | Cc1cccc(NC(=O)NC2CCc3ccccc3N(CC(=O)O)C2=O)c1 (centres unmarked) [Example 5, 2,3,4,5-Tetrahydro-3-{[[(3-methylphenyl)aminol]carbonyl]amino}-2-oxo-1H-1-benzazepine-1-acetic acid] |  |
| 12 nM |  | Cc1cccc(NC(=O)NC2CCc3ccccc3N(CC(=O)OC(C)(C)C)C2=O)c1 (centres unmarked) [Example 4] |  |
| 80 nM |  | Cc1cccc(NC(=O)NC2CCc3ccccc3N(CC(=O)N3CCCC3)C2=O)c1 (centres unmarked) [Example 6, 1-{[2,3,4,5-Tetrahydro-3-{[[(3-methylphenyl)amino]carbonyl]amino}-2-oxo-1H-1-benzazepin-1-yl]acetyl}pyrrolidine] |  |
